{"source": "patent US20230184749A1", "about": "“DRUG RANKING METHOD AND SYSTEM, COMPARISON METHOD FOR DRUG RANKING METHOD AND NEW USE OF DRUG SELECTED USING THE SAME” (National Tsing Hua University, priority 2021, published 2023)", "tested_on": "SARS-CoV-2", "experiment": "Plaque assay, anti-SARS-CoV-2 activity in Vero E6 cells", "assay_type": "cell-based, SARS-CoV-2 (hCoV-19/Taiwan/NTU13/2020)", "conditions": "for average percentage of suppression of SARS-CoV-2 replication / plaque reduction compared to the negative control groups (FIG. 13): Vero E6 cells; for average percentage of suppression of SARS-CoV-2 replication: 5 days of incubation; for EC50: Severe acute respiratory syndrome coronavirus 2, Vero C1008, read-out: EC50 (minimal concentration required to reduce 50% of plaque count); for plaque reduction compared to the negative control groups (FIG. 13): at least 10 μM", "note": "Like-named read-outs stand apart in the source and are kept apart here.", "data": [{"smiles": "CC(Cc1ccc(O)cc1)NCC(O)c1cc(O)cc(O)c1", "note": "(stereo not shown) [Fenoterol, 5-[1-hydroxy-2-[1-(4-hydroxyphenyl)propan-2-ylamino]ethyl]benzene-1,3-diol]", "values": [{"measurement": "average percentage of suppression of SARS-CoV-2 replication", "setting": "10 μM", "value": 17.0, "unit": "%"}, {"measurement": "average percentage of suppression of SARS-CoV-2 replication", "setting": "40 μM", "value": 68.9, "unit": "%"}, {"measurement": "EC50", "value": 30, "unit": "µM"}, {"measurement": "plaque reduction compared to the negative control groups (FIG. 13)", "value": "effective in suppressing SARS-CoV-2 replication"}]}, {"smiles": "CCCCCN=C(N)N/N=C/c1c[nH]c2ccc(OC)cc12", "note": "[Tegaserod, 1-[(E)-(5-methoxy-1H-indol-3-yl)methylideneamino]-2-pentylguanidine]", "values": [{"measurement": "average percentage of suppression of SARS-CoV-2 replication", "setting": "10 μM", "value": 54.3, "unit": "%"}, {"measurement": "EC50", "setting": "SARS-CoV-2 infected Vero E6 cells, regression analysis of dose-response curves", "value": "< 10", "unit": "µM"}, {"measurement": "plaque reduction compared to the negative control groups (FIG. 13)", "value": "effective in suppression SARS-CoV-2 replication"}]}]}
